Values of other authors as cited in patent publication US20230149268A1, “MULTI-PHASE COSMETIC COMPOSITION COMPRISING AT LEAST TWO IMMISCIBLE OILY PHASES” (CHANEL PARFUMS BEAUTE, priority 2020, published 2023).

Conditions: Table 1, known values, fatty acids

Compound | δd | δh | δp
CCCCCC/C=C\CCCCCCCC(=O)O [Palmitoleic acid C16:1, Palmitoleic acid] | 16.5 | 6.3 | 3.4
CCCCCCCCCCCCCCCCCCCCCCCC(=O)O [Lignoceric acid C24:0, Lignoceric acid] | 16.1 | 3.9 | 2.4
CCCCCCCCCCCCCCCCCCCCCC(=O)O [Behenic acid C22:0, Behenic acid] | 16.2 | 4.3 | 2.3
CCCCCCCCCCCCCC(=O)O [Myristic acid C14:0, Myristic acid] | 16.3 | 6.6 | 3.3
CCCCCCCCCC/C=C\CCCCCCCC(=O)O [Gadoleic acid C20:1, Gadoleic acid] | 16.4 | 5.1 | 2.9
CCCCCCCCCCCCCCCCC(=O)O [Margaric acid C17:0, Margaric acid] | 16.2 | 5.4 | 2.8
CCCCCCCC/C=C\CCCCCCCC(=O)O [Oleic acid C18:1, Oleic acid] | 16.4 | 5.5 | 3
CCCCCCCCCC(=O)O [Capric acid C10:0, Capric acid] | 16.3 | 8.6 | 4.2
CCCCCCCCCCCCCCCCCCCC(=O)O [Arachidic acid C20:0, Arachidic acid] | 16.1 | 4.7 | 2.7
CCCCCCCCCCCCCCCCCC(=O)O [Stearic acid C18:0, Stearic acid] | 16.2 | 5.2 | 2.8

More lines, now with the values ahead:

δd | δh | δp | Compound
16.3 | 10.1 | 5.2 | CCCCCCCC(=O)O [Caprylic acid C8:0, Caprylic acid]
16.3 | 7.5 | 4 | CCCCCCCCCCCC(=O)O [Lauric acid C12:0, Lauric acid]
16.2 | 5.8 | 3.3 | CCCCCCCCCCCCCCCC(=O)O [Palmitic acid C16:0, Palmitic acid]
16.7 | 6.1 | 3.1 | CCCCC/C=C\C/C=C\CCCCCCCC(=O)O [Linoleic acid C18:2, Linoleic acid]
16.3 | 4.5 | 2.6 | CCCCCCCC/C=C\CCCCCCCCCCCC(=O)O [Erucic acid C22:1, Erucic acid]
16.5 | 8.2 | 4.4 | CCCCCC[C@@H](O)C/C=C\CCCCCCCC(=O)O [Ricinoleic acid]
